In brackets after ≈: the same amount, converted by molar mass.

One data set concerns SK-MEL-28. The data set can be described thus: Cytotoxicity against human SK-MEL-28 cells assessed as growth inhibition. Type of data set: functional, cell-based.
Data set [1] in a line: Toxicity in Artemia salina Linn. Type of data set: organism-based. As to conditions: in vivo.
A further data set deals with Klebsiella pneumoniae. The data set can be described thus: Antibacterial activity against Klebsiella pneumoniae ATCC 10031. The data set is classed as functional.
The test system of the next data set is Escherichia coli. The data set can be described thus: Antibacterial activity against Escherichia coli ATCC 11103. Type of data set: functional.
A short description of data set [2]: Antibacterial activity against Salmonella setubal ATCC 19196. Type of data set: functional, Salmonella enterica subsp. enterica serovar Setubal. The note with it: Salmonella enterica.
Data set [3] can be described thus: Antioxidant activity assessed as DPPH radical scavenging activity. Type of data set: physicochemical.
Data set [4] in a line: Antioxidant activity assessed as inhibition of linoleic acid autooxidation. Type of data set: physicochemical.
The test system of a further data set is Liver microsome. The data set can be described thus: Antioxidant activity in rat liver microsomes assessed as inhibition of NADPH-dependent lipid peroxidation. Type of data set: functional.
The nature of data set [5]: Cytotoxicity against human Bel7402 cells assessed as growth inhibition. The data set is classed as functional, cell-based. As to conditions: Bel-7402.

In the case of `C=C(C)[C@@H]1CC[C@]2(C(=O)O)CC[C@]3(C)[C@H](CC[C@@H]4[C@@]5(C)CC[C@H](OC(=O)/C=C/c6ccc(O)c(O)c6)C(C)(C)[C@@H]5CC[C@]43C)[C@@H]12`, in the data set with SK-MEL-28, the IC50 amounted to 81700 nM.

As for `CC1=C2OC[C@@H](C)c3c(O)cc(C)c(c32)C(=O)C1=O`, in data set [1], the LC50 was 50.7 µg/mL (≈ 196 µM).

`CC(C)CC(C(=O)NC1C(=O)NC(Cc2ccccc2)C(=O)N/C=C\c2ccc(cc2)OC1C(C)C)N(C)C` (configuration not stated): the MIC was determined as 25 µg/mL (≈ 46.8 µM) in the data set on Klebsiella pneumoniae, 25 µg/mL (≈ 46.8 µM) with Escherichia coli and 50 µg/mL (≈ 93.5 µM) in data set [2].

With `COc1cc(C)c2oc(=O)c(C)cc2c1C(C)C`, the LC50 in [1] came to 24.2 µg/mL (≈ 98.2 µM).

Turning to `Cc1cc2c(C(C)C)c(O)cc(C)c2oc1=O`, the LC50 in data set [1] was determined as 0.61 µg/mL (≈ 2.63 µM).

In turn, `Cc1c2c3c(ccc(C)c3oc1=O)C(C)CO2` (configuration not stated) displayed an LC50 in data set [1] of 188 µg/mL (≈ 816 µM).

Take `Oc1cc(O)c2c(c1)O[C@H](c1ccc(O)c(O)c1)[C@H](O)[C@H]2c1c(O)cc(O)c2c1O[C@H](c1ccc(O)c(O)c1)[C@H](O)[C@H]2c1c(O)cc(O)c2c1O[C@H](c1ccc(O)c(O)c1)[C@H](O)[C@H]2c1c(O)cc(O)c2c1O[C@H](c1ccc(O)c(O)c1)[C@H](O)C2`: the IC50 is 2.1 µg/mL (≈ 1.82 µM) in data set [3], 2.7 µg/mL (≈ 2.34 µM) in data set [4] and 25 µg/mL (≈ 21.6 µM) with Liver microsome.

Regarding `OC[C@H]1O[C@@H](O[C@H]2[C@H]3c4c(O)cc(O)cc4O[C@]2(c2ccc(O)c(O)c2)Oc2cc(O)c4c(c23)O[C@H](c2ccc(O)c(O)c2)[C@H](O)C4)[C@H](O)[C@@H](O)[C@H]1O`, the IC50 came to 3.9 µg/mL (≈ 5.28 µM) in data set [3], 2.5 µg/mL (≈ 3.38 µM) in data set [4] and 18 µg/mL (≈ 24.4 µM) in the data set on Liver microsome.

`Oc1cc(O)c2c(c1)O[C@]1(c3ccc(O)c(O)c3)Oc3cc(O)c4c(c3[C@H]2[C@@H]1O[C@@H]1OC[C@@H](O)[C@H](O)[C@H]1O)O[C@H](c1ccc(O)c(O)c1)[C@H](O)C4`: the IC50 in [3] stood at 3.9 µg/mL (≈ 5.5 µM); in data set [4], 2.2 µg/mL (≈ 3.1 µM); in the data set with Liver microsome, 21 µg/mL (≈ 29.6 µM).

`OC[C@H]1O[C@@H](O[C@@H]2[C@@H]3c4c(O)cc(O)cc4O[C@]2(c2ccc(O)c(O)c2)Oc2cc(O)c4c(c23)O[C@H](c2ccc(O)c(O)c2)[C@H](O)[C@H]4c2c(O)cc(O)c3c2O[C@H](c2ccc(O)c(O)c2)[C@H](O)C3)[C@H](O)[C@@H](O)[C@H]1O`: the IC50 turned out to be 2.4 µg/mL (≈ 2.34 µM) in data set [3], 2 µg/mL (≈ 1.95 µM) in data set [4] and 36 µg/mL (≈ 35.1 µM) with Liver microsome.

For the molecule `Oc1cc(O)c2c(c1)O[C@]1(c3ccc(O)c(O)c3)Oc3cc(O)c4c(c3[C@@H]2[C@H]1O[C@@H]1OC[C@@H](O)[C@H](O)[C@H]1O)O[C@H](c1ccc(O)c(O)c1)[C@H](O)[C@H]4c1c(O)cc(O)c2c1O[C@H](c1ccc(O)c(O)c1)[C@H](O)C2`, the figures for the IC50 (in data set [3]; in [4]; with Liver microsome) were 2.3 µg/mL (≈ 2.31 µM), 1.9 µg/mL (≈ 1.91 µM) and 28 µg/mL (≈ 28.1 µM), respectively.

As to `C=C(C)[C@@H]1CC[C@]2(C(=O)O)CC[C@]3(COC(=O)c4ccccc4)[C@H](CC[C@@H]4[C@@]5(C)CC[C@H](OC(C)=O)C(C)(C)[C@@H]5CC[C@]43C)[C@@H]12`, the IC50 in the data set with SK-MEL-28 is 32000 nM.

For the molecule `Oc1cc(O)c2c(c1)O[C@H](c1ccc(O)c(O)c1)[C@H](O)[C@H]2c1c(O)cc2c(c1O)C[C@@H](O)[C@@H](c1ccc(O)c(O)c1)O2`, the IC50 stood at 2.3 µg/mL (≈ 3.98 µM) in data set [3], 2.3 µg/mL (≈ 3.98 µM) in [4] and 12 µg/mL (≈ 20.7 µM) in the data set with Liver microsome.

For `CC1=Cc2c(C(C)C)ccc(C)c2C(=O)C1=O`, the LC50 in data set [1] amounted to 2.08 µg/mL (≈ 9.11 µM).

On to `Cc1c(C)c2c(c(C)c1O)CCC(C)(CCCC(C)CCCC(C)CCCC(C)C)O2` (racemic) [alpha-TOCHOPHEROL], for which the IC50 in [3] is 4.6 µg/mL (≈ 10.7 µM); in [4], 7.7 µg/mL (≈ 17.9 µM); in the data set on Liver microsome, 5.6 µg/mL (≈ 13 µM).

With `Oc1cc(O)c2c(c1)O[C@H](c1ccc(O)c(O)c1)[C@H](O)C2` [(-)-EPICATECHIN], the IC50 in data set [3] came out at 0.62 µg/mL (≈ 2.14 µM); in data set [4], 0.62 µg/mL (≈ 2.14 µM); in the data set on Liver microsome, 29 µg/mL (≈ 99.9 µM).

`O=C(N[C@H](CO)[C@H](O)c1ccc([N+](=O)[O-])cc1)C(Cl)Cl` [CHLORAMPHENICOL]: the figures for the MIC (in the data set on Klebsiella pneumoniae; against Escherichia coli; in [2]) were 1.56 µg/mL (≈ 4.83 µM), 3.12 µg/mL (≈ 9.66 µM) and 3.12 µg/mL (≈ 9.66 µM), respectively.

In the case of `CC(C)(O)/C=C/C(=O)[C@](C)(O)[C@H]1[C@H](O)C[C@@]2(C)[C@@H]3CC=C4[C@@H](C[C@H](O)C(=O)C4(C)C)[C@]3(C)C(=O)C[C@]12C` [CUCURBITACIN D], the IC50 was 1410 nM in [5] and 1220 nM in the data set with SK-MEL-28.

For the molecule `CC1(C)C(=O)[C@@H](O)C[C@@H]2C1=CC[C@@H]1[C@@]2(C)C(=O)C[C@]2(C)[C@@H]([C@@](C)(O)C(=O)CC(O)C(C)(C)O)[C@H](O)C[C@@]12C` (some centres not stated) [CUCURBITACIN G], the IC50 in data set [5] came out at 1370 nM; in the data set on SK-MEL-28, 1280 nM.

`CC1=Cc2c(c(C)cc(O)c2C(C)C)C(=O)C1=O` [MANSONONE G]: in data set [1], the LC50 was 64.4 µg/mL (≈ 263 µM).

Take `Oc1cc(O)c2c(c1)O[C@H](c1ccc(O)c(O)c1)[C@H](O)[C@H]2c1c(O)cc(O)c2c1O[C@H](c1ccc(O)c(O)c1)[C@H](O)C2` [PROCYANIDIN B2]: the IC50 in data set [3] amounted to 1.4 µg/mL (≈ 2.42 µM); in the data set with Liver microsome, 12 µg/mL (≈ 20.7 µM).

As to `Oc1cc(O)c2c(c1)O[C@H](c1ccc(O)c(O)c1)[C@H](O)[C@H]2c1c(O)cc(O)c2c1O[C@H](c1ccc(O)c(O)c1)[C@H](O)[C@H]2c1c(O)cc(O)c2c1O[C@H](c1ccc(O)c(O)c1)[C@H](O)C2` [PROCYANIDIN C1], the IC50 was 6.2 µg/mL (≈ 7.15 µM) in data set [3], 5.3 µg/mL (≈ 6.11 µM) in [4] and 68 µg/mL (≈ 78.5 µM) in the data set with Liver microsome.
